# The source made the active and inactive calls.
# Assays:
# Trypsin = Trypsin (Sus scrofa, UniProt P00761); assay: trypsin protease activity blockade – biochemical, quenched peptide fluorescence, cherry-pick, selectivity assay for Rce1 protease inhibitor project, dose response (AID 488789)
# [1] = Trypanosoma cruzi growth suppression in host cells – NIH3T3 host cells, beta-gal luminescence, confirmation (AID 2044); format: functional, cell-based;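 also: intracellular parasites grown in NIH/3T3 mouse fibroblasts as host cells; luminescent beta-galactosidase reporter signal from transgenic T. cruzi replicating inside host cells; inhibitors lower the luminescence signal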
# [2] = NIH3T3 cell viability loss – ATP luminescence, mouse fibroblasts, counter-screen, dose response (AID 2010); format: functional, cell-based;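 also: cells exposed to compound for about 90 hours before reading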
# CAAX prenyl protease 2 = CAAX prenyl protease 2 (Saccharomyces cerevisiae S288c, UniProt Q03530); format: biochemical
# Sequence of CAAX prenyl protease 2 (Q03530 whole entry): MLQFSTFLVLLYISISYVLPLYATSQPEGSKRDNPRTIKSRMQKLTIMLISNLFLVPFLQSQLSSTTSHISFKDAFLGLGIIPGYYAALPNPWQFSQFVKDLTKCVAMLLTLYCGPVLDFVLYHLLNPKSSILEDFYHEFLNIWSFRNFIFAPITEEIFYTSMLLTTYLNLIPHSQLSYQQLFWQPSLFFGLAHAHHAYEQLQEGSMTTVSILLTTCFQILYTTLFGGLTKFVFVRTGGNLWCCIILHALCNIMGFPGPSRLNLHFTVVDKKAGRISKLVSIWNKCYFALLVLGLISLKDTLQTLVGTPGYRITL
# [3] = target: T1, Alkaline phosphatase, tissue-nonspecific isozyme (Homo sapiens, UniProt P05186); assay: TNAP enzyme inhibition by screening hits, dose response, selectivity assay for mouse IAP inhibitor project, biochemical, human TNAP, uHTS hits (AID 488906); format: functional
# T1 sequence (P05186 whole entry): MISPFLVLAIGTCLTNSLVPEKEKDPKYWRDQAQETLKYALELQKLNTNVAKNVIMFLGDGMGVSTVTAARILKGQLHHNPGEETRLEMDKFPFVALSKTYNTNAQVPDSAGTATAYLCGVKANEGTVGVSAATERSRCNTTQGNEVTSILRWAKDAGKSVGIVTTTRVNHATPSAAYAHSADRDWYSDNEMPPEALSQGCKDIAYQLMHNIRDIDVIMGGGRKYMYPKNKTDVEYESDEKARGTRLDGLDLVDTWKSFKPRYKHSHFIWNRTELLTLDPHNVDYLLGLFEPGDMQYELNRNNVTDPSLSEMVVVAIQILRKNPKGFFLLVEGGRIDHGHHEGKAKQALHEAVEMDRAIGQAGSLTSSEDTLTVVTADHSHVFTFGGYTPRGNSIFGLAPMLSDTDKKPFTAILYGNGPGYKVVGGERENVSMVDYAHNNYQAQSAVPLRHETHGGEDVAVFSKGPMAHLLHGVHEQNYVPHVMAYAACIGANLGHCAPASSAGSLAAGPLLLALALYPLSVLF
# [4] = target: Intestinal-type alkaline phosphatase (Mus musculus, UniProt P24822); assay: PubChem AID 488785; format: functional
# Sequence of Intestinal-type alkaline phosphatase (Mus musculus, UniProt P24822) (P24822 whole entry): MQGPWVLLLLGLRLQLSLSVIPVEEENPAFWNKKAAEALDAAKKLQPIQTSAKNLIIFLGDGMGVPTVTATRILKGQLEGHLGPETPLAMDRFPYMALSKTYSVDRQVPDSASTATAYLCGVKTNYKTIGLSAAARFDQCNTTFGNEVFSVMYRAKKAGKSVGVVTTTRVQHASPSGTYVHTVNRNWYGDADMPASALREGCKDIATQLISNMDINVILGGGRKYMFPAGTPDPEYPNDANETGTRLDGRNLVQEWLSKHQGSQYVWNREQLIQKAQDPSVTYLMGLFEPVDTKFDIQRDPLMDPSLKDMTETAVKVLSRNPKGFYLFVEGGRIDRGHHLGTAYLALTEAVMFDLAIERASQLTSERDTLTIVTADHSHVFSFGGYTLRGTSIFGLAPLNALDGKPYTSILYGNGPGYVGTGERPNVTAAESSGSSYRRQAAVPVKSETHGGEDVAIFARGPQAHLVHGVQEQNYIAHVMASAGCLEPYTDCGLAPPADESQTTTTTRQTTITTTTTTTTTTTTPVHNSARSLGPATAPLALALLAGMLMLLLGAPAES
# [5] = target: T2, Probable nicotinate-nucleotide adenylyltransferase (Staphylococcus aureus (strain N315), UniProt P65502); format: functional, Staphylococcus aureus subsp. aureus N315; conditions: read-out: IC50_Mean;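 as to IC50 Mean: confirmatory dose-response retesting of NadD inhibitor hits first found in an ultra-high-throughput screen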
# T2 sequence (P65502 whole entry): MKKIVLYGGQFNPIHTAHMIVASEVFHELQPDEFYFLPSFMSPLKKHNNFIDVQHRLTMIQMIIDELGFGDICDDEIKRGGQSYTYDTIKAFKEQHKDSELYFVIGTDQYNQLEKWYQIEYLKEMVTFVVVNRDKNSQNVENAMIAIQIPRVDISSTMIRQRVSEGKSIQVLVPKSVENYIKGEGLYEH
# [6] = target: Intestinal-type alkaline phosphatase (Homo sapiens, UniProt P09923); assay: inhibition of human intestinal alkaline phosphatase – biochemical, dose response (AID 488876); format: functional
# Sequence of Intestinal-type alkaline phosphatase (Homo sapiens, UniProt P09923) (P09923 whole entry): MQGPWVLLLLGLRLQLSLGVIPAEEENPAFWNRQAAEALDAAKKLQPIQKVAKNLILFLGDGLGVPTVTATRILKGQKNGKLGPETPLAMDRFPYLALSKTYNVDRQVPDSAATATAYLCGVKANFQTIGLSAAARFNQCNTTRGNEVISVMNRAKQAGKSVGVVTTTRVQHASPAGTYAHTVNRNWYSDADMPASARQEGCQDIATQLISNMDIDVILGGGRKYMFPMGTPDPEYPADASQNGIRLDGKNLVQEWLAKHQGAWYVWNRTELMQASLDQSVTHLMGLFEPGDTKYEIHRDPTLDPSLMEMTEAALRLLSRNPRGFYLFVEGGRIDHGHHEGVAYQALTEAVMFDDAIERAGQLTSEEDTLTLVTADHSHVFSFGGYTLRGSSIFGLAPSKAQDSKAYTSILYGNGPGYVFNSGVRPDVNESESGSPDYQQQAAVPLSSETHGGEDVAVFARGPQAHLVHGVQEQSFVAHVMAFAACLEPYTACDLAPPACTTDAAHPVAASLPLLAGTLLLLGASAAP
# H9c2 = assay: cells; format: functional, cell-based; conditions: Rattus norvegicus, H9c2, Myocardium;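 also: confirmatory concentration-response retest of ultra-high-throughput screening hits for modulation of myocardial damage; cell death induced by hydrogen peroxide oxidative stress; compound pretreatment for 60 min then peroxide exposure for 2 h; potency is for protecting the cells against peroxide damage rather than for killing them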
# [7] = target: T2, Probable nicotinate-nucleotide adenylyltransferase; format: functional, Staphylococcus aureus subsp. aureus N315
# INS1 = assay: beta-cell survival under cytokine stress – INS-1E, ATP luminescence, dry powder, dose response (AID 488844); format: functional, cell-based; conditions: Rattus norvegicus
# Vero [8] = assay: cells; format: functional; conditions: Chlorocebus sabaeus
# Protein skinhead-1 = target: T3, Protein skinhead-1 (Caenorhabditis elegans, UniProt P34707); format: functional
# T3 sequence (P34707 whole entry): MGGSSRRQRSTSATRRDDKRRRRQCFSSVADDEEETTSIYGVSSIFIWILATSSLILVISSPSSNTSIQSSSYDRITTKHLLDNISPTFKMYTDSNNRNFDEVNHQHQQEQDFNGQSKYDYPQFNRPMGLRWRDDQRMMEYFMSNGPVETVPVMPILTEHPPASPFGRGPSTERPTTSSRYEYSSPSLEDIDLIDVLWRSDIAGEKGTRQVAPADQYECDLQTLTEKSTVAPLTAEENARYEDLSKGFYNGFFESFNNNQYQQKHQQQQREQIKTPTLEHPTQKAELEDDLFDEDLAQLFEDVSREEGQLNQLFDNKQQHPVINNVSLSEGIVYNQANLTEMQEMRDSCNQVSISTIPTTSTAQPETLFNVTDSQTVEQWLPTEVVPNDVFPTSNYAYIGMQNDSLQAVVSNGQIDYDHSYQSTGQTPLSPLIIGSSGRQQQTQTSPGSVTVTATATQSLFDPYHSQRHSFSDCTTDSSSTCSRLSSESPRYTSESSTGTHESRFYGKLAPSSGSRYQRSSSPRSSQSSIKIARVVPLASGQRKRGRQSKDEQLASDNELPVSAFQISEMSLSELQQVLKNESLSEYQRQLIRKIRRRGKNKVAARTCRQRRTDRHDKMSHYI
# Vero [9] = assay: cells; format: functional, cell-based; conditions: Chlorocebus sabaeus
# [10] = target: Peroxisome proliferator-activated receptor gamma/Nuclear receptor coactivator 1 (Homo sapiens, UniProt P37231); assay: TR-FRET dose response biochemical High Throughput Screening assay for agonists of the steroid receptor coactivator 1 (SRC-1) recruitment by the peroxisome proliferator-activated receptor gamma (PPAR gamma): non-selective agonists. [Related pubchem assays (depositor defined):AID1300, AID1808, AID504735, AID631]; format: protein assay
# [11] = target: Peroxisome proliferator-activated receptor gamma/Nuclear receptor coactivator 3 (Homo sapiens, UniProt P37231); assay: TR-FRET dose response biochemical High Throughput Screening assay for agonists of the steroid receptor coactivator 3 (SRC-3) recruitment by the peroxisome proliferator-activated receptor gamma (PPAR gamma): non-selective agonists. [Related pubchem assays: 1301 (Confirmation screen.), 1048 (Primary screen.)]; format: functional
# [12] = target: Peroxisome proliferator-activated receptor gamma/Nuclear receptor coactivator 2 (Homo sapiens, UniProt P37231); assay: TR-FRET dose response biochemical High Throughput Screening assay for agonists of the steroid receptor coactivator 2 (SRC-2) recruitment by the peroxisome proliferator-activated receptor gamma (PPAR gamma): non-selective agonists. [Related pubchem assays: 1297, 1032 ]; format: functional
# Cytochrome P450 2C19 = Cytochrome P450 2C19 (Homo sapiens, UniProt P33261); assay: Cytochrome panel assay with activity outcomes. Panel member name: p450-cyp2c19 Compounds with AC50 equal or less than 10 uM are considered active; format: functional; conditions: read-out: AC50
# Sequence of Cytochrome P450 2C19 (P33261 whole entry): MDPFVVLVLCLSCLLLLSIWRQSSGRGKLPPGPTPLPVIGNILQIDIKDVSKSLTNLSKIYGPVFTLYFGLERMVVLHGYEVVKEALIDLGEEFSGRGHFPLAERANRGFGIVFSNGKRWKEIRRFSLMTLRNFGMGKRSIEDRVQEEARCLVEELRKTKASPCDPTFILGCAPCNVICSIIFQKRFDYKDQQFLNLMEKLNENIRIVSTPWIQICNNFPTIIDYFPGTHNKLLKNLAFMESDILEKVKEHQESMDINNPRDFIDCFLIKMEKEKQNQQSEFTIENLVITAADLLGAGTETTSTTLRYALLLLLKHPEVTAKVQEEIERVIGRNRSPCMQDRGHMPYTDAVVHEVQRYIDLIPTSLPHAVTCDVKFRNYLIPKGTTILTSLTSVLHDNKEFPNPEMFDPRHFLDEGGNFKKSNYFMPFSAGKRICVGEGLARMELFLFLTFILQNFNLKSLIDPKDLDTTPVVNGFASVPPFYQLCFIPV
# [13] = target: DNA dC->dU-editing enzyme APOBEC-3A (Homo sapiens, UniProt P31941); assay: Dose Response confirmation of small molecule APOBEC3A DNA Deaminase Inhibitors via a fluorescence-based single-stranded DNA deaminase assay. [Related pubchem assays (depositor defined):AID493011, AID493024]; format: functional
# Sequence of DNA dC->dU-editing enzyme APOBEC-3A (P31941 whole entry): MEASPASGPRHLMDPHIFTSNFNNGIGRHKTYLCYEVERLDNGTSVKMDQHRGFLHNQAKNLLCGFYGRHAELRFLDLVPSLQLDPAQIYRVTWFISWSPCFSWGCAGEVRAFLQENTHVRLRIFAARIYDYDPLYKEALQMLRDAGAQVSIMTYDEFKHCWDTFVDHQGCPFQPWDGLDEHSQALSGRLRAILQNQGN
# [14] = target: DNA dC->dU-editing enzyme APOBEC-3G (Homo sapiens, UniProt Q9HC16); format: functional;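 also: Dose-response counterscreen measuring inhibition of APOBEC3G DNA deaminase activity, run while confirming APOBEC3A inhibitors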
# Sequence of DNA dC->dU-editing enzyme APOBEC-3G (Q9HC16 whole entry, the tested form may be a part): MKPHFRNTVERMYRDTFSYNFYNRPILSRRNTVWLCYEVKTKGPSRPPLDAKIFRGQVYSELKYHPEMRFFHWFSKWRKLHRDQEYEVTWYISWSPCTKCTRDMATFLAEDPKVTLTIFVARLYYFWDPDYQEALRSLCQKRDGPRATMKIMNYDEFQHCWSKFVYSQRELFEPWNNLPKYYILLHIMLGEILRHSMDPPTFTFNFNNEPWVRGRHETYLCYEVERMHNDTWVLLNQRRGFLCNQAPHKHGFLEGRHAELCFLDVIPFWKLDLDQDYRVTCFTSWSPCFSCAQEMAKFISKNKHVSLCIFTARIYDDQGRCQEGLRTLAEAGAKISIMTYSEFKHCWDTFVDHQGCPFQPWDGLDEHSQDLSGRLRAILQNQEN
# [15] = target: T4, Carboxy-terminal domain RNA polymerase II polypeptide A small phosphatase 1 (Homo sapiens, UniProt Q9GZU7); assay: CTDSP1 inhibitors, concentration-response, biochemical, absorbance readout, ultra-high-throughput screen actives (AID 540297); format: functional
# T4 sequence (Q9GZU7 whole entry): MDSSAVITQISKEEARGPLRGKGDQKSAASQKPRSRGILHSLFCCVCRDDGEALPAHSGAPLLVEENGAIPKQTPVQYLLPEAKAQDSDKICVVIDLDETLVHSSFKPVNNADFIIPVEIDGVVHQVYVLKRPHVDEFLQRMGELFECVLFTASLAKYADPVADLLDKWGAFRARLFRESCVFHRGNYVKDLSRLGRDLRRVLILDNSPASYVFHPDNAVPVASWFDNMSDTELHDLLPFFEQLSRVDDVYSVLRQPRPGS
# [16] = target: T5, Tyrosine-protein phosphatase non-receptor type 7 (Homo sapiens, UniProt P35236); assay: SAR analysis of chemical inhibitors of HePTP using a Fluorescent assay - Set 2. [Related pubchem assays (depositor defined):AID1059, AID1077, AID1661, AID2085, AID521]; format: functional
# T5 sequence (P35236 whole entry): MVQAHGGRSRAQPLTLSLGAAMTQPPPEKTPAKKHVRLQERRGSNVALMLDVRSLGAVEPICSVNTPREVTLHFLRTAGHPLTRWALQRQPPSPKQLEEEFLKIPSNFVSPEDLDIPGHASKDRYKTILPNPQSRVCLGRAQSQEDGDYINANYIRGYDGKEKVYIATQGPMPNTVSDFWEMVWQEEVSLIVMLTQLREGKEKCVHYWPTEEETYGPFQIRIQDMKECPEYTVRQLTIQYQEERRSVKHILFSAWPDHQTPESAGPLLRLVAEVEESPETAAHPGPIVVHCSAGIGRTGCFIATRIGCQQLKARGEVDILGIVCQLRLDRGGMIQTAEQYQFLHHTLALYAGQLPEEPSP
# [17] = target: Dual specificity protein phosphatase 3 (Homo sapiens, UniProt P51452); assay: SAR VHR1 Fluorescent Assay for In Vitro dose response studies Set 2. [Related pubchem assays (depositor defined):AID1654, AID1661, AID1878]; format: functional
# Sequence of Dual specificity protein phosphatase 3 (P51452 whole entry): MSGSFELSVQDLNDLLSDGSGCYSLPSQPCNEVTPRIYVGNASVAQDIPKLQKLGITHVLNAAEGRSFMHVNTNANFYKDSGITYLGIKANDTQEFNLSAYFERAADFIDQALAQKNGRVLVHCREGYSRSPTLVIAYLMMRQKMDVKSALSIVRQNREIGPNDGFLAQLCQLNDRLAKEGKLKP
# [18] = target: G-protein coupled receptor 55 (Homo sapiens, UniProt Q9Y2T6); assay: inhibition of LPI-stimulated GPR55 beta-arrestin translocation – imaging, U2OS, beta-arrestin-GFP, LPI agonist, primary screen (AID 2013); format: functional;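 also: antagonist potency measured as reduced agonist-driven arrestin aggregation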
# Sequence of G-protein coupled receptor 55 (Q9Y2T6 whole entry): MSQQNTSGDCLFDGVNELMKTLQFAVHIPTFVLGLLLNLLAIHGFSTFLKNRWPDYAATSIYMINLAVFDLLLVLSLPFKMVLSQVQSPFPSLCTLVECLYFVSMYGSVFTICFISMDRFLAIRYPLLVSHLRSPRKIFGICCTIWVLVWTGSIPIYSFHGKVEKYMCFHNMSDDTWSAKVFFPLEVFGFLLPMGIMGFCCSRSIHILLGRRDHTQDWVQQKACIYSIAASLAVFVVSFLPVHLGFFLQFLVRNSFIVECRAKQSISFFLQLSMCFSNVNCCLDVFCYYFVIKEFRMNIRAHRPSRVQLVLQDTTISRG
# [19] = target: T6, E3 ubiquitin-protein ligase XIAP (Homo sapiens, UniProt P98170); assay: small molecules displacing peptide from XIAP – biochemical, IAP family, fluorescence polarization (AID 1018); format: functional
# T6 sequence (P98170 whole entry): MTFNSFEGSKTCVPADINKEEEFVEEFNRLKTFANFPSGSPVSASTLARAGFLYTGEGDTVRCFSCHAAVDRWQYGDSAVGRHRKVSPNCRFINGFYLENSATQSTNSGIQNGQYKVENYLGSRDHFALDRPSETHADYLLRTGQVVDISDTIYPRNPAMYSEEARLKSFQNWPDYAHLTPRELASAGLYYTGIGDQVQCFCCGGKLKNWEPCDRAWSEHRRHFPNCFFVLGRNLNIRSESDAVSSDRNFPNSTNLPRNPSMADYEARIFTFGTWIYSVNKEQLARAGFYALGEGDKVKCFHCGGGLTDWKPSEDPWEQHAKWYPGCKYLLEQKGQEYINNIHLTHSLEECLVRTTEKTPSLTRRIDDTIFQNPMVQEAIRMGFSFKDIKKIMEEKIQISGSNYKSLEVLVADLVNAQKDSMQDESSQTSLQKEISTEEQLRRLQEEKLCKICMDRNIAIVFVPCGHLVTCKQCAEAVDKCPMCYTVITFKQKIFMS
# [20] = target: T6, E3 ubiquitin-protein ligase XIAP; assay: Counter Screen using XIAP-Bir3 for Chemical Antagonists of Bir1/2 domains of IAP-family anti-apoptotic proteins. [Related pubchem assays (depositor defined):AID1018, AID1449, AID1514, AID1638, AID1749, AID1750, AID488957, AID488963]
# Albumin = Albumin (Bos taurus, UniProt P02769); assay: Counterscreen for inhibitors of T-cell receptor (TCR)-CD3 interaction: Fluorescence-based biochemical high throughput dose response assay to identify inhibitors of T-cell receptor (TCR)-CD3 interaction using a TAMRA-labeled BSA probe.; format: functional
# Sequence of Albumin (P02769 whole entry): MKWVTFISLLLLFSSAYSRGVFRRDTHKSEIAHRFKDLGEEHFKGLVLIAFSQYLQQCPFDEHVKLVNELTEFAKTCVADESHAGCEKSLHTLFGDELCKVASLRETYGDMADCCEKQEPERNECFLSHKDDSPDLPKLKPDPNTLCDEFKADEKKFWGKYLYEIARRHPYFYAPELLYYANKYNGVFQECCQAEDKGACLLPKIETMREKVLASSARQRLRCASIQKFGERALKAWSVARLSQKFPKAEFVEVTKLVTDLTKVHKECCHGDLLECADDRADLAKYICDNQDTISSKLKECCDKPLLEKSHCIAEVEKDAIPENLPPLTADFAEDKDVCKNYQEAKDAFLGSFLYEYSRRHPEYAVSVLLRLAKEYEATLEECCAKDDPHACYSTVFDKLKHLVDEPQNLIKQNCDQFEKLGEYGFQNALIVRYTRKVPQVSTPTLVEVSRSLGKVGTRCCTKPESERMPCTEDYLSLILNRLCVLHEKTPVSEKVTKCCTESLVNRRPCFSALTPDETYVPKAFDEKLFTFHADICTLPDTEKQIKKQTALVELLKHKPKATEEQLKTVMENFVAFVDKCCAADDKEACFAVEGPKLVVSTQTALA
# Coagulation factor XII = target: T7, Coagulation factor XII (Homo sapiens, UniProt P00748); format: functional;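 also: activated factor XIIa alpha cleaving a fluorogenic AMC peptide substrate; inhibitor potency from loss of enzyme activity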
# T7 sequence (P00748 whole entry): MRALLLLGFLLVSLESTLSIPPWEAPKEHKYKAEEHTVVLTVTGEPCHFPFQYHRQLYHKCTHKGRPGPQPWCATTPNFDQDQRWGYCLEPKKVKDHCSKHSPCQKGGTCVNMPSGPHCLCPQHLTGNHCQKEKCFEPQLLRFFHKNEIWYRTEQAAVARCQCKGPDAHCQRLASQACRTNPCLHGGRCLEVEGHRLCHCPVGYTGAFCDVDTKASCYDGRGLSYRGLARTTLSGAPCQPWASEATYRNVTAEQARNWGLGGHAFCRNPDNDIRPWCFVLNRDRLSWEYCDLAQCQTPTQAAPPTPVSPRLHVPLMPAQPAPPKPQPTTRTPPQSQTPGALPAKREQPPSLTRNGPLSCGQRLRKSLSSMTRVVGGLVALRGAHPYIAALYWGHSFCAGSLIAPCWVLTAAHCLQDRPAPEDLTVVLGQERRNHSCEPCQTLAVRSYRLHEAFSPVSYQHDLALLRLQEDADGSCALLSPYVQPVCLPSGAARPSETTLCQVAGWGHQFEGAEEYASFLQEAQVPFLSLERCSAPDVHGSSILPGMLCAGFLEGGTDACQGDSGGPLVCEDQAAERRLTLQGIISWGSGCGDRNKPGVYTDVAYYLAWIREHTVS
# [21] = target: T5, Tyrosine-protein phosphatase non-receptor type 7; assay: redox-active compounds inhibiting HePTP phosphatase – biochemical, fluorescence, mechanism study (AID 2068); format: functional
# Sequence of Trypsin (P00761 whole entry): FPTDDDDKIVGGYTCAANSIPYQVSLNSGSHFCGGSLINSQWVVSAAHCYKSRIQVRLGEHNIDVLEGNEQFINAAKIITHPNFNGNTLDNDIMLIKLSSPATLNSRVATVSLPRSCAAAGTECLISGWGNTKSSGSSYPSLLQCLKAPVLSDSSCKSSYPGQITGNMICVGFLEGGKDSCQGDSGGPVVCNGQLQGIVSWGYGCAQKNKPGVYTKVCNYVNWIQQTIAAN
smiles,measurement,setting,value
O=C(CSc1nc2ccccc2s1)N1N=C(c2cccs2)CC1c1ccc(F)cc1 (stereo not drawn),AC50,Trypsin,24.5 µM (active)
same,EC50,[1],1.06 µM (active)
same,EC50,[2],> 60 µM (not active)
same,AC50,CAAX prenyl protease 2,12.1 µM (active)
O=C(NNC(=O)c1cc2cc(Br)ccc2oc1=O)c1ccc(O)cc1O,IC50,[3],> 100 µM (inactive)
same,IC50,[4],12.9 µM (active)
same,IC50,[5],44.7 µM (active)
same,IC50,[6],> 100 µM (inactive)
same,IC50,H9c2,> 79 µM (inactive)
same,IC50,[7],16.3 µM (active)
COc1ccc(S(=O)(=O)N(C)C[C@@H]2Oc3c(NC(=O)c4cc(C)nn4C)cccc3C(=O)N([C@@H](C)CO)C[C@H]2C)cc1,AC50,INS1,> 260 µM (inactive)
Clc1ccc(-c2nc3cc(CN4CCCCC4)ccc3o2)cc1,CC50,Vero [8],> 25 µM (active)
same,IC50,Protein skinhead-1,4.15 µM (active)
same,IC50,Vero [9],> 25 µM (active)
Cn1c(=O)cc(SCC(=O)NCCCN2CCOCC2)c2ccc(Cl)cc21,EC50,[10],> 79.4 µM (inactive)
same,EC50,[11],> 79.4 µM (not active)
same,EC50,[12],> 79.4 µM (not active)
same,AC50,Cytochrome P450 2C19,10 µM (inconclusive)
Cc1ccn(C)c(=N)c1,IC50,[13],7.71 µM (active)
same,IC50,[14],7.58 µM (active)
Cc1cc(-c2ccccc2)nc2c(Br)c(C(=O)O)nn12,IC50,[13],25.2 µM (active)
same,IC50,[14],37.7 µM (active)
same,IC50,[15],2.44 µM (active)
COc1ccc(OC)c(C(=S)NCc2ccc(C(F)(F)F)cc2)c1,IC50,[16],38.4 µM (active)
same,IC50,[17],48.4 µM (active)
CCN(C(=O)CCN1C(=O)/C(=C/c2ccccc2)SC1=S)C1CCS(=O)(=O)C1 (stereo not drawn),CC50,Vero [8],22.1 µM (active)
same,IC50,Vero [9],> 25 µM (active)
C#CCOc1c(Br)cc(/C=N\NC(=O)CN2CCOCC2)cc1OCC,IC50,[18],3.59 µM (active)
CCCCOc1ccccc1NC(=O)c1scc2c1OCCO2,IC50,[18],3.01 µM (active)
COc1ccc(C(=O)N(CN2CCCC2=O)c2ccccc2OC)cc1OC,IC50,[19],> 100 µM (not active)
same,IC50,[20],> 100 µM (inactive)
COc1cc(/C=N/NC(=O)c2cc(O)cc(O)c2)ccc1OC(=O)c1ccccc1,IC50,[3],26.8 µM (active)
same,IC50,[4],4.43 µM (active)
same,IC50,Albumin,> 94.1 µM (inactive)
same,IC50,[6],77.1 µM (active)
CCn1nc(C)c(CNC(=O)c2cc(COc3ccc(F)cc3Cl)on2)c1C,IC50,Coagulation factor XII,> 50 µM (inactive)
Clc1ccccc1CN1CCN(CCCc2ccccc2)CC1,IC50,Coagulation factor XII,> 50 µM (inactive)
O=C(Nc1ccccc1)Nc1ccc2nc(-c3ccco3)c(-c3ccco3)nc2c1,IC50,[21],0.575 µM (active)
